Drawing on patent US9765092B2, “Tricyclic piperidine compounds” (ACTELION PHARMACEUTICALS LTD, priority 2013, dated 2017), this text covers IC50 for ten molecules.

Molecules are shown by their SMILES.

The target in one test is human TPH1 (Homo sapiens (Human), UniProt P17752). Kind of test: Biochemical in vitro assay using fluorescence readout (TPH1 inhibition). The note with it: full length human TPH1, 40 μM L-tryptophan, 15° C., 60 minutes, fluorescence at 540 nm; mean if determined several times.
Sequence of human TPH1 (P17752 whole entry): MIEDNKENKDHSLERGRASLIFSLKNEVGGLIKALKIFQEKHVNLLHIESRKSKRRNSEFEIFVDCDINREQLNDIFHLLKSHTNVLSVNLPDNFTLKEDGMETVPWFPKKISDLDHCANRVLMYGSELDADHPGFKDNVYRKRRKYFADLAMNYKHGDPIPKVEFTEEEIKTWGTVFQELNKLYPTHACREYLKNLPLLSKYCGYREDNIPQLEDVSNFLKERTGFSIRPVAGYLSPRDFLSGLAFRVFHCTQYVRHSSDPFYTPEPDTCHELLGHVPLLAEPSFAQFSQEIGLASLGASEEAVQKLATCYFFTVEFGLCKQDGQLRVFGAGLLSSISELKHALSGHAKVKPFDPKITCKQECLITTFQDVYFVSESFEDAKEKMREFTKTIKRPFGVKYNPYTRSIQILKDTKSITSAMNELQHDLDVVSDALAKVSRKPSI
As a reminder, the IC50 is the concentration at which inhibition is half-maximal. High values mean a need for much substance, low ones inhibition by little substance. Turning to `Cc1nn2c3c(nc2s1)CCN(C(=O)COc1ccc(S(N)(=O)=O)nc1Cl)C3c1ccc(Cl)cc1F` (stereo not shown) [Example 1.4.12, 6-Chloro-5-(2-(5-(4-chloro-2-fluorophenyl)-2-methyl-7,8-dihydro-[1,3,4]thiadiazolo[2′,3′:2,3]imidazo[4,5-c]pyridin-6(5H)-yl)-2-oxoethoxy)pyridine-2-sulfonamide], the IC50 worked out at 57 nM.

Still in this test, the particulars now being: human TPH1, fluorescence readout.
`CNC(=O)c1ccc(C2c3c(nc4sc(C)nn34)CCN2C(=O)COc2ccc(N3CCOCC3)nc2Cl)o1` (stereo not shown) [Example 1.42.2, 5-(6-(2-((2-chloro-6-morpholinopyridin-3-yl)oxy)acetyl)-2-methyl-5,6,7,8-tetrahydro-[1,3,4]thiadiazolo[2′,3′:2,3]imidazo[4,5-c]pyridin-5-yl)-N-methylfuran-2-carboxamide]: the IC50 turned out to be 11 nM.

`Cc1nn2c3c(nc2s1)CCN(C(=O)COc1ccc(N(C)C)nc1Cl)C3c1cnc(N2CCOCC2)s1` (stereo not shown) [Example 1.7.4, 2-((2-chloro-6-(dimethylamino)pyridin-3-yl)oxy)-1-(2-methyl-5-(2-morpholinothiazol-5-yl)-7,8-dihydro-[1,3,4]thiadiazolo[2′,3′:2,3]imidazo[4,5-c]pyridin-6(5H)-yl)ethanone] displayed an IC50 of 408 nM.

`CCc1c(OCC(=O)N2CCc3nc4sc(C)nn4c3C2c2ccc(C3CC3)cc2F)ccc(C)[n+]1[O-]` (stereo not shown) [Example 1.6.20, 3-(2-(5-(4-cyclopropyl-2-fluorophenyl)-2-methyl-7,8-dihydro-[1,3,4]thiadiazolo[2′,3′:2,3]imidazo[4,5-c]pyridin-6(5H)-yl)-2-oxoethoxy)-2-ethyl-6-methylpyridine-1-oxide]: the IC50 was 94 nM.

In turn, `Cc1nn2c3c(nc2s1)CCN(C(=O)COc1cccnc1Cl)C3c1cnc(N2CCOCC2)s1` (stereo not shown) [Example 1.7.3, 2-((2-chloropyridin-3-yl)oxy)-1-(2-methyl-5-(2-morpholinothiazol-5-yl)-7,8-dihydro-[1,3,4]thiadiazolo [2′,3′:2,3]imidazo[4,5-c]pyridin-6(5H)-yl)ethanone] returned an IC50 of 338 nM. Against the preceding molecule, the IC50 is about 3.6-fold higher.

Take `O=C(COc1cccnc1Cl)N1CCc2nc3sccn3c2C1c1ccc(Cl)cc1F` (stereo not shown) [Example 6.4.4, 1-(5-(4-chloro-2-fluorophenyl)-7,8-dihydrothiazolo-[2′,3′:2,3]imidazo[4,5-c]pyridin-6(5H)-yl)-2-((2-chloropyridin-3-yl)oxy)ethanone]: half-maximal inhibition (IC50) required 13 nM.

For `Cc1cnc([C@H]2c3c(nc4sc(C)nn34)CCN2C(=O)COc2ccc(C3(N(C)C)CC3)nc2Cl)c(F)c1` [Example 1.31.12, (R)-2-((2-chloro-6-(1-(dimethylamino)cyclopropyl)pyridin-3-yl)oxy)-1-(5-(3-fluoro-5-methylpyridin-2-yl)-2-methyl-7,8-dihydro-[1,3,4]thiadiazolo[2′,3′:2,3]imidazo[4,5-c]pyridin-6(5H)-yl)ethanone], half-maximal inhibition (IC50) was put at 217 nM.

In turn, `O=C(COc1ccc(C(F)(F)F)nc1Cl)N1CCc2nc3sccn3c2C1c1ncc(C2CC2)cc1F` (stereo not shown) [Example 6.7.1, 2-((2-chloro-6-(trifluoromethyl)pyridin-3-yl)oxy)-1-(5-(5-cyclopropyl-3-fluoropyridin-2-yl)-7,8-dihydrothiazolo-[2′,3′:2,3]imidazo[4,5-c]pyridin-6(5H)-yl)ethanone] yielded an IC50 of 11 nM. This IC50 lies about 20-fold lower than the previous one.

With `Cc1nn2c3c(nc2s1)CCN(C(=O)COc1ccc(C(=O)N(C)C)nc1Cl)C3c1ncc(C2CC2)cc1F` (stereo not shown) [Example 1.14.8, 6-chloro-5-(2-(5-(5-cyclopropyl-3-fluoropyridin-2-yl)-2-methyl-7,8-dihydro-[1,3,4]thiadiazolo[2′,3′:2,3]imidazo[4,5-c]pyridin-6(5H)-yl)-2-oxoethoxy)-N,N-dimethylpicolinamide], the half-maximal inhibitory concentration (IC50) worked out at 3 nM.

For `Cc1nn2c3c(nc2s1)CCN(C(=O)COc1ccc(N2CCOCC2)nc1Cl)C3c1ncc(C2CC2)cc1F` (stereo not shown) [Example 1.14.1, 2-((2-chloro-6-morpholinopyridin-3-yl)oxy)-1-(5-(5-cyclopropyl-3-fluoropyridin-2-yl)-2-methyl-7,8-dihydro-[1,3,4]thiadiazolo[2′,3′:2,3]imidazo[4,5-c]pyridin-6(5H)-yl)ethanone], half-maximal inhibition (IC50) was put at 4 nM.
